From patent US20210386367A1, “DEVICES AND SYSTEMS FOR GASTROINTESTINAL MICROBIOME DETECTION AND MANIPULATION” (Progenity, Inc., priority 2018, published 2021)
Converted amounts (≈) assume the structure as drawn. Like-named read-outs stand apart in the source and are kept apart here.

Legend:
[1] = test system: Veillonella spp. clinical isolates; assay: MIC distribution against clinical isolates; format: cell-based; settings: 30 Veillonella spp. isolates
S. agalactiae = assay: Spontaneous mutation frequency and mutation prevention concentration (MPC); format: cell-based; settings: S. agalactiae ATCC 13813
Excerpt: As used herein, “spontaneous mutation frequency” refers to the rate at which mutations arise in a bacterium that can lead to resistance to develop to an antimicrobial agent. “Mutation prevention concentration” or “MPC” refers to the lowest concentration of antimicrobial agent above which the selective proliferation of resistant mutants is expected to occur only rarely.

Prevotella spp. = assay: Agar dilution MIC, 30 clinical isolates; format: cell-based
S. pneumoniae ATCC 49619 = assay: Broth microdilution MIC (time-kill study); format: cell-based, Streptococcus pneumoniae
E. coli ATCC 25922 = assay: Time-kill assay; format: cell-based, Escherichia coli; settings: 2×, 4×, 8× MIC; 2, 6, 24 hr
E. coli ATCC 35218 = assay: Time-kill assay; format: cell-based, Escherichia coli; settings: 2×, 4×, 8× MIC; 2, 6, 24 hr
[2] = test system: E. coli spontaneous mutants; assay: Broth microdilution MIC of spontaneous mutants; format: cell-based, Escherichia coli
Procedure, shortened: (§1)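 Spontaneous mutants from drug selection plates were tested by CLSI broth microdilution in MHB II with two-fold serial drug dilutions. Inoculum was about 5×10^5 CFU/mL, incubated aerobically at 35° C. for 18-20 hr. MIC was the lowest concentration inhibiting visible growth.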

[3] = test system: Streptococcus spp. spontaneous mutants; assay: organism not typed; format: cell-based
Procedure, shortened: as §1

[4] = rifaximin selection 4X MIC, 1 μg/mL
[5] = rifaximin selection 8X MIC, 2 μg/mL
[6] = 30 Prevotella spp. clinical isolates
[7] = colonies selected at 4× and 8× the MIC

CO[C@H]1/C=C/O[C@@]2(C)Oc3c(C)c(O)c4c(O)c(c5c(nc6cc(C)ccn65)c4c3C2=O)NC(=O)/C(C)=C\C=C\[C@H](C)[C@H](O)[C@@H](C)[C@@H](O)[C@@H](C)[C@H](OC(C)=O)[C@@H]1C [rifaximin]
Cumulative percentage of isolates inhibited at MIC ([1]; MIC 1 μg/mL): 10.0%
Number of test isolates at MIC ([1]; MIC 1 μg/mL): 1
Cumulative percentage of isolates inhibited at MIC ([1]; MIC 8 μg/mL): 93.3%
Number of test isolates at MIC ([1]; MIC 8 μg/mL): 7
MFC (S. agalactiae): >2 µg/mL
Average Count (S. agalactiae; [4]): 159 CFU
Count 1 (S. agalactiae; [4]): 180 CFU
Count 2 (S. agalactiae; [4]): 137 CFU
Spontaneous Mutation Frequency (S. agalactiae; [4]): 2.77 × 10^−8
Average Count (S. agalactiae; [5]): 115 CFU
Count 1 (S. agalactiae; [5]): 110 CFU
Count 2 (S. agalactiae; [5]): 120 CFU
Spontaneous Mutation Frequency (S. agalactiae; [5]): 2.00 × 10^−8
MIC50 (Prevotella spp.): 0.12 µg/mL (≈ 0.153 µM)
MIC90 (Prevotella spp.): 1 µg/mL (≈ 1.27 µM)
MIC50 (Prevotella spp.; [6]): 0.12 µg/mL (≈ 0.153 µM)
MIC90 (Prevotella spp.; [6]): 1 µg/mL (≈ 1.27 µM)
MIC range (Prevotella spp.; [6]): 0.03 to 32 µg/mL
Mode (Prevotella spp.; modal MIC, 30 Prevotella spp. clinical isolates): 0.12 µg/mL
MIC (S. pneumoniae ATCC 49619; S. pneumoniae ATCC 49619): 0.06 µg/mL (≈ 0.0763 µM)
MIC (S. pneumoniae ATCC 49619; broth microdilution): 0.06 µg/mL (≈ 0.0763 µM)
time-kill kinetics outcome (bactericidal = ≥3 log reduction in CFU per mL) (E. coli ATCC 25922): bacteriostatic effect at 2-6 hr with regrowth between 6 and 24 hr
time-kill kinetics outcome (bactericidal = ≥3 log reduction in CFU per mL) (E. coli ATCC 35218): bacteriostatic at 8× the MIC with regrowth at 24 hr for both 2× and 4× the MIC
MIC ([2]; E. coli MMX 1312, selected on ceftriaxone 4X MIC, Colony A): 3 µg/mL
MIC ([2]; E. coli MMX 1312, selected on ceftriaxone 4X MIC, Colony B): 8 µg/mL
MIC ([2]; E. coli MMX 1312, selected on ceftriaxone 4X MIC, Colony C): 8 µg/mL
MIC ([2]; E. coli MMX 1312, selected on ceftriaxone 8X MIC, Colony A): 3 µg/mL
MIC ([2]; E. coli MMX 1312, selected on ceftriaxone 8X MIC, Colony B): 3 µg/mL
MIC ([2]; E. coli MMX 1312, selected on ceftriaxone 8X MIC, Colony C): 3 µg/mL
MIC ([2]; E. coli MMX 1312 Parent): 8 µg/mL
MIC ([2]; E. coli MMX 1312 Parent (Table 49)): 8 µg/mL
MIC ([2]; E. coli MMX 1312 mutant selected on meropenem 4X MIC, colony A): 8 µg/mL
MIC ([2]; E. coli MMX 1312 mutant selected on meropenem 4X MIC, colony B): 8 µg/mL
MIC ([2]; E. coli MMX 1312 mutant selected on meropenem 4X MIC, colony C): 8 µg/mL
MIC ([2]; E. coli MMX 1312 mutant selected on meropenem 8X MIC, colony A): 8 µg/mL
MIC ([2]; E. coli MMX 1312 mutant selected on meropenem 8X MIC, colony B): 8 µg/mL
MIC ([2]; E. coli MMX 1312 mutant selected on meropenem 8X MIC, colony C): 4 µg/mL
broth microdilution MIC of selected colonies relative to parent strain [2, 7]: several-fold higher
MIC ([3]; S. agaloctiae ATCC 13813, selected on rifaximin 4X MIC, Colony A): >8 µg/mL
MIC ([3]; S. agaloctiae ATCC 13813, selected on rifaximin 4X MIC, Colony B): >8 µg/mL
MIC ([3]; S. agaloctiae ATCC 13813, selected on rifaximin 8X MIC, Colony A): >8 µg/mL
MIC ([3]; S. agaloctiae ATCC 13813, selected on rifaximin 8X MIC, Colony B): >8 µg/mL
MIC ([3]; S. agaloctiae ATCC 13813 Parent): 0.12 µg/mL (≈ 0.153 µM)
MIC ([3]; S. pneumoniae ATCC 49619, selected on rifaximin 4X MIC, Colony A): >8 µg/mL
MIC ([3]; S. pneumoniae ATCC 49619, selected on rifaximin 4X MIC, Colony B): >8 µg/mL
MIC ([3]; S. pneumoniae ATCC 49619, selected on rifaximin 8X MIC, Colony A): >8 µg/mL
MIC ([3]; S. pneumoniae ATCC 49619, selected on rifaximin 8X MIC, Colony B): >8 µg/mL
MIC ([3]; S. pneumoniae ATCC 49619 Parent): 0.015 µg/mL (≈ 0.0191 µM)
MIC ([3]; S. pyogenes ATCC 49399, selected on rifaximin 4X MIC, Colony A): >8 µg/mL
MIC ([3]; S. pyogenes ATCC 49399, selected on rifaximin 4X MIC, Colony B): >8 µg/mL
MIC ([3]; S. pyogenes ATCC 49399, selected on rifaximin 8X MIC, Colony A): >8 µg/mL
MIC ([3]; S. pyogenes ATCC 49399, selected on rifaximin 8X MIC, Colony B): >8 µg/mL
MIC ([3]; S. pyogenes ATCC 49399 Parent): 0.06 µg/mL (≈ 0.0763 µM)
broth microdilution MIC of selected colonies relative to parent strain [3, 7]: several-fold higher
